The text below walks through data of patent US20240383874A1, “BENZENE RING DERIVATIVE, AND COMPOSITION AND PHARMACEUTICAL USE THEREOF” (Xizang Haisco Pharmaceutical Co., Ltd., priority 2020, published 2024).

Series [1] in a line: Pharmacokinetic test in rats. The class given is in vivo. The settings on record: rat, po; male SD rats, single dose i.g. 5 mg/kg, plasma, 0-24 h. How it is done: Test objective: in this test, a single dose of test compounds was administered to SD rats intragastrically, and the concentrations of the test compounds in plasma of the rats were measured to evaluate pharmacokinetic characteristics of the test compounds in the rats.
Test animals: male SD rats, 200-250 g, 6-8 weeks old, 3 rats/compound, purchased from Chengdu Dossy Experimental Animals Co., Ltd.
Test method: on the day of the test, 3 SD rats were randomly grouped according to their body weights. The animals were fasted with water available for 12 to 14 hours one day before the administration of a test compound, and were fed 4 hours after the administration.
Sampling: before and after the administration, 0.1 mL of blood was taken from the orbits of the rats under isoflurane anesthesia, and placed in an EDTAK2 centrifuge tube. Centrifugation was carried out at 5000 rpm at 4C for […], and the plasma was collected.
Time points for plasma collection in G1 group: 0, 5 min, 15 min, 30 min, 1 h, 2 h, 4 h, 6 h, 8 h, and 24 h.
Before analysis and detection, all samples were stored at −80° C. The samples were analyzed quantitatively by LC-MS/MS.

A further series concerns 22RV1 cells. The series is described as follows: Experiment 2 on inhibiting 22RV1 cell proliferation (7 days, CellTiter-Glo). The class given is cell-based. The settings on record: 1% css-FBS phenol red-free medium, incubated with compound 7 days, read-out: IC50 values on proliferation inhibition of 22RV1 cells. Summed up: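 Survival measured by CellTiter-Glo after 7 days of compound exposure, normalised to DMSO controls, with IC50 fitted by dose-response. Cells (22RV1, 2000/well) were seeded overnight in 1% css-FBS phenol red-free medium before dosing.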

Structures can show the parent of a compound that is named as a salt. Where two headings read alike, the source gives them in different places.

What is called AUC(0-t) is exposure summed from dosing to a finite time, without extrapolation to infinity. The low end stands for less exposure, the high end for more exposure. Take `CCOc1c(Cl)cc(C(C)(C)c2ccc(OCc3ccnc(N4CCC(CN5CCC6(CC5)CN(c5ccc7c(c5)n(C)c(=O)n7C5CCC(=O)NC5=O)C6)CC4)n3)cc2)cc1C#N` (stereo not shown) [Compound 118 trifluoroacetate, 3-chloro-5-(2-(4-((2-(4-((2-(1-(2,6-dioxopiperidin-3-yl)-3-methyl-2-oxo-2,3-dihydro-1H-benzo[d]imidazol-5-yl)-2,7-diazaspiro[3.5]nonan-7-yl)methyl)piperidin-1-yl)pyrimidin-4-yl)methoxy)phenyl)propan-2-yl)-2-ethoxybenzonitrile]: the area under the curve AUC(0-t) in series [1] stood at 686 ± 336 ng·h/mL.

Molecule `CC(C)(c1ccc(OCc2ccnc(N3CCC(CN4CCC(C5CCN(c6cc7c(cc6F)C(=O)N(C6CCC(=O)NC6=O)C7=O)CC5)CC4)CC3)n2)cc1)c1cc(Cl)cc(C#N)c1` (stereo not shown) [Compound 78, 3-chloro-5-(2-(4-((2-(4-((1′-(2-(2,6-dioxopiperidin-3-yl)-6-fluoro-1,3-dioxoisoindolin-5-yl)-[4,4′-bipiperidin]-1-yl)methyl)piperidin-1-yl)pyrimidin-4-yl)methoxy)phenyl)propan-2-yl)benzonitrile] registered an AUC(0-t) in series [1] of 2350 ± 309 ng·h/mL.

For the molecule `CCOc1c(Cl)cc(C(C)(C)c2ccc(OCc3ccnc(N4CCC(CN(C)C5CCN(c6ccc7c(c6)n(C)c(=O)n7C6CCC(=O)NC6=O)CC5)CC4)n3)cc2)cc1C#N` (stereo not shown) [Compound 102 trifluoroacetate, 3-chloro-5-(2-(4-((2-(4-(((1-(1-(2,6-dioxopiperidin-3-yl)-3-methyl-2-oxo-2,3-dihydro-1H-benzo[d]imidazol-5-yl)piperidin-4-yl)(methyl)amino)methyl)piperidin-1-yl)pyrimidin-4-yl)methoxy)phenyl)propan-2-yl)-2-ethoxybenzonitrile], the IC50 in the series with 22RV1 cells (Homo sapiens, 22Rv1, 168 h) was determined as 0.641 µM.

Regarding `CC(C)(c1ccc(OCc2ccnc(N3CCN(C4CC5(CCN(CC6CCN(c7ccc8c(c7)C(=O)N(C7CCC(=O)NC7=O)C8=O)CC6)CC5)C4)CC3)n2)cc1)c1cc(Cl)cc(C#N)c1` (stereo not shown) [Compound 60 trifluoroacetate, 3-chloro-5-(2-(4-((2-(4-(7-((1-(2-(2,6-dioxopiperidin-3-yl)-1,3-dioxoisoindolin-5-yl)piperidin-4-yl)methyl)-7-azaspiro[3.5]nonan-2-yl)piperazin-1-yl)pyrimidin-4-yl)methoxy)phenyl)propan-2-yl)benzonitrile], in the series on 22RV1 cells (Homo sapiens, 22Rv1, 168 h), the IC50 stood at 0.866 µM.

For `Cn1c(=O)n(C2CCC(=O)NC2=O)c2cccc(CN3CCC4(CC3)CC(N3CCC5(CCN(c6nccc(COc7ccc(C(C)(C)c8cc(Cl)cc(C#N)c8)cc7)n6)CC5)CC3)C4)c21` (stereo not shown) [Compound 101 trifluoroacetate, 3-chloro-5-(2-(4-((2-(9-(7-((1-(2,6-dioxopiperidin-3-yl)-3-methyl-2-oxo-2,3-dihydro-1H-benzo[d]imidazol-4-yl)methyl)-7-azaspiro[3.5]nonan-2-yl)-3,9-diazaspiro[5.5]undecan-3-yl)pyrimidin-4-yl)methoxy)phenyl)propan-2-yl)benzonitrile], in the series on 22RV1 cells (Homo sapiens, 22Rv1, 168 h), the IC50 stood at 0.699 µM.

Take `CC(C)(c1ccc(OCc2ccnc(N3CCN(C4CCN(CC5CCN(c6ccc7c(c6)C(=O)N(C6CCC(=O)NC6=O)C7=O)CC5)C4)CC3)n2)cc1)c1cc(Cl)cc(C#N)c1` (stereo not shown) [Compound 63 trifluoroacetate, 3-chloro-5-(2-(4-((2-(4-(1-((1-(2-(2,6-dioxopiperidin-3-yl)-1,3-dioxoisoindolin-5-yl)piperidin-4-yl)methyl)pyrrolidin-3-yl)piperazin-1-yl)pyrimidin-4-yl)methoxy)phenyl)propan-2-yl)benzonitrile]: the IC50 with 22RV1 cells (Homo sapiens, 22Rv1, 168 h) came to 0.593 µM.

For the molecule `CC(C)(c1ccc(OCc2ccnc(N3CCC(N4CC(CN5CCN(c6cccc7c6C(=O)N(C6CCC(=O)NC6=O)C7=O)CC5)C4)CC3)n2)cc1)c1cc(Cl)cc(C#N)c1` (stereo not shown) [Compound 65 trifluoroacetate, 3-chloro-5-(2-(4-((2-(4-(3-((4-(2-(2,6-dioxopiperidin-3-yl)-1,3-dioxoisoindolin-4-yl)piperazin-1-yl)methyl)azetidin-1-yl)piperidin-1-yl)pyrimidin-4-yl)methoxy)phenyl)propan-2-yl)benzonitrile], in the series with 22RV1 cells (Homo sapiens, 22Rv1, 168 h), the IC50 came out at 0.759 µM.

With `CC(C)(c1ccc(OCc2ccnc(N3CCN(C4CCN(CC5CCN(c6ccc7c(c6)C(=O)N(C6CCC(=O)NC6=O)C7=O)CC5)CC4)CC3)n2)cc1)c1cc(Cl)cc(C#N)c1` (stereo not shown) [Compound 49 trifluoroacetate, 3-chloro-5-(2-(4-((2-(4-(1-((1-(2-(2,6-dioxopiperidin-3-yl)-1,3-dioxoisoindolin-5-yl)piperidin-4-yl)methyl)piperidin-4-yl)piperazin-1-yl)pyrimidin-4-yl)methoxy)phenyl)propan-2-yl)benzonitrile], in the series on 22RV1 cells (Homo sapiens, 22Rv1, 168 h), the IC50 is 0.494 µM.

Take `CC(C)(c1ccc(OCc2ccnc(N3CC4(CCN(C5CCN(CC6CCN(c7cccc8c7C(=O)N(C7CCC(=O)NC7=O)C8=O)CC6)CC5)CC4)C3)n2)cc1)c1cc(Cl)c(OCCCl)c(C#N)c1` (stereo not shown) [Compound 25, 3-chloro-2-(2-chloroethoxy)-5-(2-(4-((2-(7-(1-((1-(2-(2,6-dioxopiperidin-3-yl)-1,3-dioxoisoindolin-4-yl)piperidin-4-yl)methyl)piperidin-4-yl)-2,7-diazaspiro[3.5]nonan-2-yl)pyrimidin-4-yl)methoxy)phenyl)propan-2-yl)benzonitrile]: the IC50 in the series with 22RV1 cells came to 0.542 µM.

For `Cn1c(=O)n(C2CCC(=O)NC2=O)c2cccc(CN3CCC(CN4CCC(C5CCN(c6nccc(COc7ccc(C(C)(C)c8cc(Cl)cc(C#N)c8)cc7)n6)CC5)CC4)CC3)c21` (stereo not shown) [Compound 74 trifluoroacetate, 3-chloro-5-(2-(4-((2-(1′-((1-((1-(2,6-dioxopiperidin-3-yl)-3-methyl-2-oxo-2,3-dihydro-1H-benzo[d]imidazol-4-yl)methyl)piperidin-4-yl)methyl)-[4,4′-bipiperidin]-1-yl)pyrimidin-4-yl)methoxy)phenyl)propan-2-yl)benzonitrile], the IC50 with 22RV1 cells (Homo sapiens, 22Rv1, 168 h) was 0.474 µM.

Consider `CC(C)(c1ccc(OCc2ccnc(N3CC(N4CCC(CN5CCN(c6ccc7c(c6)C(=O)N(C6CCC(=O)NC6=O)C7=O)CC5)CC4)C3)n2)cc1)c1cc(Cl)cc(C#N)c1` (stereo not shown) [Compound 47 trifluoroacetate, 3-chloro-5-(2-(4-((2-(3-(4-((4-(2-(2,6-dioxopiperidin-3-yl)-1,3-dioxoisoindolin-5-yl)piperazin-1-yl)methyl)piperidin-1-yl)azetidin-1-yl)pyrimidin-4-yl)methoxy)phenyl)propan-2-yl)benzonitrile], for which the IC50 in the series with 22RV1 cells (Homo sapiens, 22Rv1, 168 h) came out at 0.724 µM.

Regarding `Cn1c(=O)n(C2CCC(=O)NC2=O)c2ccc(C3CCN(CC4CCN(C5CC6(CCN(c7nccc(COc8ccc(C(C)(C)c9cc(Cl)cc(C#N)c9)cc8)n7)CC6)C5)CC4)CC3)cc21` (stereo not shown) [Compound 108 trifluoroacetate, 3-chloro-5-(2-(4-((2-(2-(4-((4-(1-(2,6-dioxopiperidin-3-yl)-3-methyl-2-oxo-2,3-dihydro-1H-benzo[d]imidazol-5-yl)piperidin-1-yl)methyl)piperidin-1-yl)-7-azaspiro[3.5]nonan-7-yl)pyrimidin-4-yl)methoxy)phenyl)propan-2-yl)benzonitrile], the IC50 in the series on 22RV1 cells (Homo sapiens, 22Rv1, 168 h) amounted to 0.251 µM.

On to `CC(C)(c1ccc(OCc2ccnc(N3CCC4(CC3)CCN(C3CCN(C5CN(c6ccc7c(c6)C(=O)N(C6CCC(=O)NC6=O)C7=O)C5)CC3)CC4)n2)cc1)c1cc(Cl)c(OCCCl)c(C#N)c1` (stereo not shown) [Compound 30 trifluoroacetate, 3-chloro-2-(2-chloroethoxy)-5-(2-(4-((2-(9-(1-(1-(2-(2,6-dioxopiperidin-3-yl)-1,3-dioxoisoindolin-5-yl)azetidin-3-yl)piperidin-4-yl)-3,9-diazaspiro[5.5]undecan-3-yl)pyrimidin-4-yl)methoxy)phenyl)propan-2-yl)benzonitrile], for which the IC50 in the series with 22RV1 cells (Homo sapiens, 22Rv1, 168 h) stood at 0.834 µM.

For `CC(C)(c1ccc(OCc2ccnc(N3CC4CN(CC5CN(c6ccc7c(c6)C(=O)N(C6CCC(=O)NC6=O)C7=O)C5)CC4C3)n2)cc1)c1cc(Cl)cc(C#N)c1` (stereo not shown) [Compound 73 trifluoroacetate, 3-chloro-5-(2-(4-((2-(5-((1-(2-(2,6-dioxopiperidin-3-yl)-1,3-dioxoisoindolin-5-yl)azetidin-3-yl)methyl)hexahydropyrrolo[3,4-c]pyrrol-2(1H)-yl)pyrimidin-4-yl)methoxy)phenyl)propan-2-yl)benzonitrile], the IC50 with 22RV1 cells (Homo sapiens, 22Rv1, 168 h) came to 0.097 µM.

With `CC(C)(c1ccc(OCc2ccnc(N3CCC(N4CCC(CN5CCN(c6ccc7c(c6)C(=O)N(C6CCC(=O)NC6=O)C7=O)CC5)CC4)CC3)n2)cc1)c1cc(Cl)cc(C#N)c1` (stereo not shown) [Compound 42 trifluoroacetate, 3-chloro-5-(2-(4-((2-(4-((4-(2-(2,6-dioxopiperidin-3-yl)-1,3-dioxoisoindolin-5-yl)piperazin-1-yl)methyl)-[1,4′-bipiperidin]-1′-yl)pyrimidin-4-yl)methoxy)phenyl)propan-2-yl)benzonitrile], in the series with 22RV1 cells (Homo sapiens, 22Rv1, 168 h), the IC50 worked out at 0.453 µM.

As to `CN(CC1CCN(c2nccc(COc3ccc(C(C)(C)c4cc(Cl)cc(C#N)c4)cc3)n2)CC1)C1CCN(c2ccc3c(c2)n(C)c(=O)n3C2CCC(=O)NC2=O)CC1` (stereo not shown) [Compound 114 trifluoroacetate, 3-chloro-5-(2-(4-((2-(4-(((1-(1-(2,6-dioxopiperidin-3-yl)-3-methyl-2-oxo-2,3-dihydro-1H-benzo[d]imidazol-5-yl)piperidin-4-yl)(methyl)amino)methyl)piperidin-1-yl)pyrimidin-4-yl)methoxy)phenyl)propan-2-yl)benzonitrile], the IC50 in the series with 22RV1 cells (Homo sapiens, 22Rv1, 168 h) is 0.665 µM.
